# Test results taken from patent US8614068B2, “Process for producing hepcidin” (Hellenic Pasteur Institute, priority 2007, dated 2013).
# Ends that are not written are not given here.
# What was measured:
# TfR1 = experiment: Western blot of TfR1 expression in macrophages; format: cell-based, murine; settings: RAW 264.7, 10 μM, 4 h at 37° C.
# Experimental: (§1) A, RAW 264.7 macrophages were treated with 11 μM and 10 μM of synthetic hepcidin-25 (having the sequence of SEQ ID NO. 2) and Hep-25His (having the sequence of SEQ ID NO. 6) for 4 h at 37° C. or with PBS as negative control. Cell lysates were subjected to 8% SDS PAGE and Western Blot with antibodies against TfR1, Ferroportin and actin as loading control. B, The signal density of ferroportin, TfR1 and actin protein bands from two independent experiments were quantified by densitometry and their intensity relative to actin was calculated. […] Hep25-His, negative peptide and PBS was incubated with Raw 264.7 macrophages, followed by cross-linking with DSS. Cell lysates were incubated with Ni2-NTA and eluates were analyzed by Western blot using anti-FPN1 Ab. […] HEK293-Fpn cells were induced with ponasterone for 24 h and then treated with Hep25-His or synthetic hepcidin 25 (s. Hep25) for 3 h. Fluorescence was visualized with a Leica TCS confocal microscope.
# Western blotting—1×10^6 cells (RAW 264.7, THP-1 or J774) were plated in […] plates and after 12-20 h cells were treated with hepcidins in serum-free DMEM for 4 h, at 37° C. Afterwards, cells were re-suspended in lysis buffer (1% Triton, 25 mM Hepes pH 7.4, 150 mM NaCl, 10% Glycerol, 5 mM EDTA, 0.5 mM PMSF, protein inhibitors (Roche, Mannheim, Germany) and quantified by Bradford assay (Biorad, Hercules, Calif.). 30 μg of cell lysate was analyzed on 8% SDS-PAGE. Proteins were transferred to Hybond C nitrocellulose membrane (Amersham Biosciences, Piscataway, N.J.) and the membranes were incubated with the primary antibodies rabbit anti-ferroportin (Alpha Diagnostics, San Antonio, Tex.), mouse anti-TfR1 (Zymed, Invitrogen, Carlsbad, Calif.) and mouse anti-β actin (Santa Cruz Biotech, Santa Cruz, Calif.), in a dilution of 1:1000, overnight at 4° C. […] Specific signal was detected with a chemiluminescence assay kit (ECL, Amersham Biosciences, Piscataway, N.J.). The bands were quantified by densitometry using the Quantity-One (Biorad, Hercules, Calif.) software. […]
# bacteria ML35p = settings: at 30 μM concentration; cited from earlier work
# ferroportin (FPN1) = biological target: T1, ferroportin (FPN1) (Mus musculus, UniProt Q9JHI9); experiment: Western blot of ferroportin expression in macrophages; format: cell-based, murine; settings: data not shown
# T1 construct: endogenous in cells; host or cells: RAW 264.7 murine macrophages
# T1 sequence (Q9JHI9 1-570): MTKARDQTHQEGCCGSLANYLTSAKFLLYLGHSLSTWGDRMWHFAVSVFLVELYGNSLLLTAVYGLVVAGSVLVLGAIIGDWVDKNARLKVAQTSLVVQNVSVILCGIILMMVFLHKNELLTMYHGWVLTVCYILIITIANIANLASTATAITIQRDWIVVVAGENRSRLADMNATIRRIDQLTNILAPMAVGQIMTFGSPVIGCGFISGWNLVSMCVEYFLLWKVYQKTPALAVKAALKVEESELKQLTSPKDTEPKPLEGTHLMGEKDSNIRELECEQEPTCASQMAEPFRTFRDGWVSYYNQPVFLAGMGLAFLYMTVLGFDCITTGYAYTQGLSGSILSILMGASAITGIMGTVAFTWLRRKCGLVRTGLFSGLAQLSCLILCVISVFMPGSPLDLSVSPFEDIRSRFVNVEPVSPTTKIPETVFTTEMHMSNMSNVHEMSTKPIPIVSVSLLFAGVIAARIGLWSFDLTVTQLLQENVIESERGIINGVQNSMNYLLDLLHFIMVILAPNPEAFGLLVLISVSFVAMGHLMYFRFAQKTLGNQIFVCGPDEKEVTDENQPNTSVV
# Experimental: as §1
# Western blotting—1×10^6 cells (RAW 264.7, THP-1 or J774) were plated in […] plates and after 12-20 h cells were treated with hepcidins in serum-free DMEM for 4 h, at 37° C. Afterwards, cells were re-suspended in lysis buffer (1% Triton, 25 mM Hepes pH 7.4, 150 mM NaCl, 10% Glycerol, 5 mM EDTA, 0.5 mM PMSF, protein inhibitors (Roche, Mannheim, Germany) and quantified by Bradford assay (Biorad, Hercules, Calif.). 30 μg of cell lysate was analyzed on 8% SDS-PAGE. Proteins were transferred to Hybond C nitrocellulose membrane (Amersham Biosciences, Piscataway, N.J.) and the membranes were incubated with the primary antibodies rabbit anti-ferroportin (Alpha Diagnostics, San Antonio, Tex.), mouse anti-TfR1 (Zymed, Invitrogen, Carlsbad, Calif.) and mouse anti-β actin (Santa Cruz Biotech, Santa Cruz, Calif.), in a dilution of 1:1000, overnight at 4° C. After washing, the membranes were incubated with anti-rabbit and anti-mouse secondary antibodies conjugated with HRP, in a dilution of 1:5000 (DakoCytomation, Carpinteria, Calif.), for 1 h at room temperature. Specific signal was detected with a chemiluminescence assay kit (ECL, Amersham Biosciences, Piscataway, N.J.). The bands were quantified by densitometry using the Quantity-One (Biorad, Hercules, Calif.) software. Data are shown as means±SD. Statistical analysis was performed by student t-Test.
# Experimental for E. coli strain ML35: Antimicrobial activity of recombinant tagged hepcidins. E. coli strain ML35 was subjected to CFU assay in order to determine the antimicrobial activity of synthetic hepcidin 25 (s. Hep25) having the sequence os SEQ ID NO. 2, Hep-25His having the sequence of SEQ ID NO. 6, Hep-25MycHis having the sequence of SEQ ID NO. 8, Hep-20MycHis having the sequence of SEQ ID NO. 7 and negative peptide having the sequence SEQ ID NO. 9 at the concentrations indicated for 2 h at 37° C. Sodium phosphate buffer was used as negative control.
# Antimicrobial assay—All purified recombinant hepcidins were tested for antibacterial activity against E. coli ML35 and BL21(DE) is a CFU assay (Porter E. M., van Dam E., Valore E. V., Ganz T., Broad-spectrum antimicrobial activity of human intestinal defensin 5, Infect. Immun. 65 (1997) 2396-2401.). Bacterial cell cultures were grown to OD600=0.2 (5×10^7 cfu/ml) and resuspended to a final concentration of 10^6 cfu/ml in 20mM sodium phosphate buffer, pH7.4. Various concentrations of peptides were added to a final volume of 100 μl and after incubation for 2 h at 37° C., surviving cells were plated in triplicates to LB/agar plates.
# Antimicrobial activity of recombinant hepcidins—The colony forming unit assay (E. M. Porter, E. van Dam, E. V. Valore, T. Ganz, Broad-spectrum antimicrobial activity of human intestinal defensin 5, Infect. Immun. 65 (1997) 2396-2401) was used to determine the antimicrobial activity of the purified recombinant hepcidin forms against the E. coli strain, ML35. […] Surviving microbes were counted following incubation with various concentrations of recombinant hepcidin preparations, synthetic hepcidin or negative peptide for 2 h at 37° C.
compound,measurement,setting,value
"CC[C@H](C)[C@@H]1NC(=O)[C@@H](NC(=O)[C@@H](NC(=O)[C@@H]2CCCN2C(=O)[C@H](Cc2ccccc2)NC(=O)[C@H](Cc2c[nH]cn2)NC(=O)[C@@H](NC(=O)[C@@H](N)CC(=O)O)[C@@H](C)O)[C@@H](C)CC)CSSC[C@@H](C(=O)N[C@@H](CCCCN)C(=O)N[C@H](C(=O)O)[C@@H](C)O)NC(=O)[C@@H]2CSSC[C@H](NC(=O)[C@H](Cc3ccccc3)NC1=O)C(=O)N[C@H]1CSSC[C@H](NC(=O)[C@H](CCCCN)NC(=O)[C@H](CO)NC(=O)[C@H](CCCNC(=N)N)NC(=O)[C@H](Cc3c[nH]cn3)NC(=O)[C@@H]3CSSC[C@H](NC(=O)CNC1=O)C(=O)N3)C(=O)NCC(=O)N[C@@H](CCSC)C(=O)N2 [synthetic hepcidin 25, hepcidin 25, reference compound]",IC50,"E. coli strain ML35; ML35, 2 h",9 µM
same,reduction of TfR1 in comparison to untreated cells,TfR1,37%±6
"hep20: hepcidin 20 as tested by Park et al. 2001 (ICIFCCGCCHRSKCGMCCKT; ends and bridges not checked; cysteine pairing not given here; UniProt P81172 65-84, looked up)",reduction of surviving bacteria ML35p,bacteria ML35p,1000 fold
"hep25: hepcidin 25 as tested by Park et al. 2001 (natural, isolated from urine, or synthetic) (DTHFPICIFCCGCCHRSKCGMCCKT; ends and bridges not checked; cysteine pairing not given here; UniProt P81172 60-84, looked up)",reduction of surviving bacteria ML35p,bacteria ML35p,1000 fold
hepcidin-20 (ICIFCCGCCHRSKCGMCCKT; listed as Homo sapiens),concentration at which bactericidal,"E. coli strain ML35; CFU assay, 2 h at 37° C., data not shown",higher than 10 mM
oligomeric fraction of Hep25-His: oligomer peak of Ni-NTA purified Hep-25His from size exclusion chromatography,effect on cellular iron metabolism,ferroportin (FPN1),no effect
